Laboratory results published in patent US6737383B1, “Herbicidal oxadiazolidines” (priority 1999, dated 2004).

Legend:
rice = experiment: Test B flood test rice; assay type: in vivo, Oryza sativa
Summary of the method: (§1)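 Read-out is a visual response score from 0 (no effect) to 10 (complete control), assigned by comparison with untreated controls. Treatment was applied at the 2-leaf stage, and plants stayed in the greenhouse for twelve to sixteen days before scoring.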

corn = experiment: Test B pre/postemergence corn; assay type: in vivo, Zea mays
Summary of the method: (§2)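 Herbicidal effect was estimated by eye on a ten-point control scale after plants spent twelve to sixteen days in a greenhouse following soil or foliar treatment. Foliar sprays targeted plants at one to four leaves; all doses were formulated in a non-phytotoxic solvent with surfactant.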

soybean = experiment: Test B pre/postemergence soybean; assay type: in vivo, Glycine max
Summary of the method: as §2

pigweed = experiment: Test B pre/postemergence pigweed; assay type: in vivo, Amaranthus retroflexus
Summary of the method: as §2

purple nutsedge = experiment: Test B pre/postemergence purple nutsedge; assay type: in vivo, Cyperus rotundus
Summary of the method: as §2

surinam grass = experiment: Test B pre/postemergence surinam grass; assay type: in vivo, Brachiaria decumbens
Summary of the method: as §2

sugar beet = experiment: Test B pre/postemergence sugar beet; assay type: in vivo, Beta vulgaris
Summary of the method: as §2

blackgrass = experiment: Test B pre/postemergence blackgrass; assay type: in vivo, Alopecurus myosuroides
Summary of the method: as §2

giant foxtail = experiment: Test B pre/postemergence giant foxtail; assay type: in vivo, Setaria faberii
Summary of the method: as §2

rape = experiment: Test B pre/postemergence rape; assay type: in vivo, Brassica napus
Summary of the method: as §2

crabgrass = experiment: Test B pre/postemergence crabgrass; assay type: in vivo, Digitaria sanguinalis
Summary of the method: as §2

smallflower flatsedge = experiment: Test B flood test smallflower flatsedge; assay type: in vivo, Cyperus difformis
Summary of the method: as §1

wheat = experiment: Test B pre/postemergence wheat; assay type: in vivo, Triticum aestivum
Summary of the method: as §2

duck salad = experiment: Test B flood test duck salad; assay type: in vivo, Heteranthera limosa
Summary of the method: as §1

bamyardgrass = experiment: Test B flood test barnyardgrass; assay type: in vivo, Echinochloa crus-galli
Summary of the method: as §1

cocklebur = experiment: Test B pre/postemergence cocklebur; assay type: in vivo, Xanthium strumarium
Summary of the method: as §2

[1] = Rate 62 g/ha, headed Pre-emergence (flood test species), scale 0 to 10 (0 no effect, 10 complete control)
[2] = Rate 125 g/ha, Pre-emergence, flood test species, scale 0 to 10 where 0 is no effect and 10 is complete control
[3] = Rate 250 g/ha, Pre-emergence, flood-test species, scale 0 to 10, 0 is no effect, 10 is complete control
[4] = Rate 500 g/ha, Pre-emergence, flood test species, scale 0 to 10 (0 no effect, 10 complete control)
[5] = Preemergence, Rate 62 g/ha, scale of 0 to 10 where 0 is no effect and 10 is complete control
[6] = Preemergence, Rate 250 g/ha, scale of 0 to 10 where 0 is no effect and 10 is complete control
[7] = Preemergence, Rate 500 g/ha, scale of 0 to 10 where 0 is no effect and 10 is complete control
[8] = Rate 62 g/ha, Postemergence, scale 0 to 10 (0 no effect, 10 complete control)
[9] = Rate 125 g/ha, Postemergence, scale of 0 to 10 where 0 is no effect and 10 is complete control
[10] = Rate 125 g/ha, Preemergence, scale of 0 to 10 where 0 is no effect and 10 is complete control
[11] = Rate 250 g/ha, Postemergence, scale of 0 to 10 where 0 is no effect and 10 is complete control
[12] = Rate 500 g/ha, Postemergence, scale 0 to 10, 0 no effect, 10 complete control

CC(C)N(C(=O)n1oc(=O)n(C[Si](C)(C)C)c1=O)c1ccc(F)cc1 [Compound 294]
8: Blackgrass plant response rating (blackgrass; [12])
6: Blackgrass plant response rating (blackgrass; [6])
10: Plant response rating, Blackgrass (blackgrass; [7]) | Giant foxtail plant response rating (giant foxtail; [6]) | Plant response rating, Giant foxtail (giant foxtail; [7]) | Plant response rating, Crabgrass (crabgrass; [7])
1: Crabgrass plant response rating (crabgrass; [5])
2: Plant response rating, Corn (corn; [7]) | Soybean plant response rating (soybean; [8]) | Plant response rating, Redroot pigweed (pigweed; [7]) | Plant response rating, Sugarbeets (sugar beet; [7]) | Plant response rating, Giant foxtail (giant foxtail; [11]) | Plant response rating, Rape (rape; [11]) | Plant response rating, Crabgrass (crabgrass; [11])
9: Plant response rating, B. signalgrass (surinam grass; [7]) | Giant foxtail plant response rating (giant foxtail; [10]) | Crabgrass plant response rating (crabgrass; [6]) | Crabgrass plant response rating (crabgrass; [10]) | Barnyardgrass plant response rating (bamyardgrass; [3]) | Barnyardgrass plant response rating (bamyardgrass; [4])
0: Rice plant response rating (rice; [1]) | Rice plant response rating (rice; [2]) | Rice plant response rating (rice; [3]) | Rice plant response rating (rice; [4]) | Corn plant response rating (corn; [5]) | Corn plant response rating (corn; [6]) | Corn plant response rating (corn; [8]) | Corn plant response rating (corn; [9]) | Corn plant response rating (corn; [10]) | Plant response rating, Corn (corn; [11]) | Corn plant response rating (corn; [12]) | Soybean plant response rating (soybean; [5]) | Soybean plant response rating (soybean; [6]) | Plant response rating, Soybean (soybean; [7]) | Soybean plant response rating (soybean; [10]) | Redroot pigweed plant response rating (pigweed; [5]) | Redroot pigweed plant response rating (pigweed; [6]) | Redroot pigweed plant response rating (pigweed; [8]) | Redroot pigweed plant response rating (pigweed; [9]) | Redroot pigweed plant response rating (pigweed; [10]) | Plant response rating, Redroot pigweed (pigweed; [11]) | Nutsedge plant response rating (purple nutsedge; [5]) | Nutsedge plant response rating (purple nutsedge; [6]) | Plant response rating, Nutsedge (purple nutsedge; [7]) | Nutsedge plant response rating (purple nutsedge; [8]) | Nutsedge plant response rating (purple nutsedge; [9]) | Nutsedge plant response rating (purple nutsedge; [10]) | Plant response rating, Nutsedge (purple nutsedge; [11]) | B. signalgrass plant response rating (surinam grass; [5]) | B. signalgrass plant response rating (surinam grass; [8]) | B. signalgrass plant response rating (surinam grass; [9]) | Plant response rating, B. signalgrass (surinam grass; [11]) | B. signalgrass plant response rating (surinam grass; [12]) | Sugarbeets plant response rating (sugar beet; [5]) | Sugarbeets plant response rating (sugar beet; [6]) | Sugarbeets plant response rating (sugar beet; [8]) | Sugarbeets plant response rating (sugar beet; [9]) | Sugarbeets plant response rating (sugar beet; [10]) | Plant response rating, Sugarbeets (sugar beet; [11]) | Blackgrass plant response rating (blackgrass; [5]) | Blackgrass plant response rating (blackgrass; [8]) | Blackgrass plant response rating (blackgrass; [9]) | Giant foxtail plant response rating (giant foxtail; [8]) | Giant foxtail plant response rating (giant foxtail; [9]) | Rape plant response rating (rape; [5]) | Rape plant response rating (rape; [6]) | Rape plant response rating (rape; [8]) | Rape plant response rating (rape; [9]) | Rape plant response rating (rape; [10]) | Crabgrass plant response rating (crabgrass; [8]) | Crabgrass plant response rating (crabgrass; [9]) | S. Flatsedge plant response rating (smallflower flatsedge; [1]) | S. Flatsedge plant response rating (smallflower flatsedge; [2]) | S. Flatsedge plant response rating (smallflower flatsedge; [3]) | Wheat plant response rating (wheat; [5]) | Wheat plant response rating (wheat; [6]) | Plant response rating, Wheat (wheat; [7]) | Wheat plant response rating (wheat; [8]) | Wheat plant response rating (wheat; [9]) | Wheat plant response rating (wheat; [10]) | Plant response rating, Wheat (wheat; [11]) | Ducksalad plant response rating (duck salad; [1]) | Ducksalad plant response rating (duck salad; [2]) | Ducksalad plant response rating (duck salad; [3]) | Ducksalad plant response rating (duck salad; [4]) | Barnyardgrass plant response rating (bamyardgrass; [1]) | Cocklebur plant response rating (cocklebur; [5]) | Cocklebur plant response rating (cocklebur; [6]) | Cocklebur plant response rating (cocklebur; [8]) | Cocklebur plant response rating (cocklebur; [9]) | Cocklebur plant response rating (cocklebur; [10]) | Plant response rating, Cocklebur (cocklebur; [11]) | Cocklebur plant response rating (cocklebur; [12])
4: Plant response rating, Soybean (soybean; [11]) | S. Flatsedge plant response rating (smallflower flatsedge; [4])
3: Soybean plant response rating (soybean; [9]) | Blackgrass plant response rating (blackgrass; [10]) | Plant response rating, Rape (rape; [7]) | Barnyardgrass plant response rating (bamyardgrass; [2])
7: B. signalgrass plant response rating (surinam grass; [6]) | B. signalgrass plant response rating (surinam grass; [10]) | Plant response rating, Blackgrass (blackgrass; [11]) | Giant foxtail plant response rating (giant foxtail; [5])
